Test results published in patent US20200071316A1, “ACTIVATORS OF THE RETINOIC ACID INDUCIBLE GENE "RIG-I" PATHWAY AND METHODS OF USE THEREOF” (Kineta Immuno-Oncology LLC, priority 2018, published 2020).
Marks after values point to notes of the source that are not given here.

Assays:
[1] = test system: IRF3 signaling pathway (IRF-inducible ISG54 promotor) in THP1-Lucia ISG cells; test: THP1-Lucia ISG reporter assay: induction of IRF3-dependent luciferase activity; format: cell-based; details: Homo sapiens, PMA-differentiated cells, 18 h after stimulation, read-out: THP1 ISG: fold increase of IRF3-dependent luciferase activity over background; for fold induction at 10 µM: 10 μM compound
How it was run: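 PMA-differentiated (100 ng/ml) reporter cells, parental and IRF3−/−, stimulated with compounds at 5–20 μM (mostly 10 μM). Secreted luciferase measured 18 h later. Scored as fold increase over untreated background in bands from "−" (<2.4-fold) to "+++++" (≥40-fold).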

[2] = test system: THP1-Lucia ISG IRF3 −/− cells; test: IRF3-deficient THP1-Lucia ISG IRF3 −/− reporter assay (counter-screen); format: cell-based; details: Homo sapiens, 18 h after stimulation, read-out: THP1 ISG IRF3 −/−: fold increase of luciferase activity over background; for fold induction at 10 µM: 10 μM compound
How it was run: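 PMA-differentiated (100 ng/ml) reporter cells carrying ISRE/ISG54 minimal promoter-driven secreted luciferase were stimulated with compounds at 5–20 μM (mostly 10 μM). Luciferase measured 18 h later and expressed as fold increase over untreated background, binned from "−" (<2.4-fold) to "+++++" (≥40-fold).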

[3] = test system: CXCL10 secretion by CT26 cells; test: RIG-I dependent CXCL10 secretion by CT26 colon carcinoma cells (ELISA); format: cell-based, murine; details: 24 h
How it was run: (§1)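 Murine CT26 colon carcinoma cells, and CRISPR-generated RIG-I knockout CT26 cells, were seeded at 1×10^4 cells/well and grown 24 h at 37 °C, 5% CO2, then treated with compounds at 5 to 20 μM. CXCL10 in supernatants was measured by ELISA 24 h after stimulation.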

[4] = test system: RIG-I deficient CT26 RIG-1−/− cells; test: CXCL10 secretion in RIG-I deficient CT26 RIG-1−/− cells (ELISA); format: cell-based, murine; details: 24 h
How it was run: as §1

[5] = test system: murine CT26 colon carcinoma cells; test: Compound-induced immunogenic cell death: apoptosis (Annexin V+) by flow cytometry; format: cell-based; details: 18 h after treatment, dose titration, FIG. 1A
From the text: (§2) To determine if the RIG-I agonist compounds induce immunogenic cell death in cancer cells, induction of apoptosis and the translocation or of calreticulin (CRT) to the cell surface in murine CT26 colon carcinoma cells were evaluation. The translocation of CRT occurs as part of a specific RIG-I dependent danger-signaling system, and the presence of CRT on the cell membrane promotes tumor antigen uptake by the dendritic cells and leads to the induction of am antigen-specific T cell response
(§3) The induction of apoptosis and the CRT translocation was measured by flow cytometry. […] Cells were harvested 18 h after treatment and then prepared for flow cytometry using an Annexin V staining kit (Biolegend) for quantification of apoptosis, an anti-CRT antibody (Abgent) for calreticulin translocation, and the Live/Dead-Violet staining kit (Thermofisher) for cell viability. Induction of apoptosis and translocation of calreticulin (CRT) to cell surface by live cells was determined by tri-color flow cytometry using FITC-labeled Annexin V, Live/Dead-Violet (LDV), and APC-anti-CRT. Apoptotic cells were defined as Annexin V^+ and calreticulin translocation to cell surface was quantified by mean fluorescent intensity (MFI) of calreticulin^+ live cells (CRT^+ LDV^−). […]

[6] = test system: murine CT26 colon carcinoma cells; test: Compound-induced immunogenic cell death: calreticulin translocation to cell surface (MFI of CRT+ LDV− cells); format: cell-based; details: 18 h after treatment, dose titration, FIG. 1B
From the text: as §2, §3

SMILES | fold induction at 10 µM [1] | fold induction at 10 µM [2] | CXCL10 secretion by CT26 cells ([3]; 10 μM compound) | CXCL10 secretion by CT26 RIG-I −/− cells ([4]; 10 μM compound) | also measured
O=C(Nc1c(Cl)cccc1Cl)c1ccc2nc(NC(=O)c3cc4ccccc4cc3OCCCCN3CCOCC3)sc2c1 [Example 19, N-(2,6-dichlorophenyl)-2-{3-[4-(morpholin-4-yl)butoxy]naphthalene-2-amido}-1,3-benzothiazole-6-carboxamide] | 5 to 9.9 | < 2.4 | ++++ (“++++” indicates 800 to 1599 pg/mL) | − (“−” indicates less than 100 pg/mL) | induction of immunogenic cell death: apoptosis (Annexin V+) [5]: induction of immunogenic cell death; induction of immunogenic cell death: calreticulin translocation to cell surface [6]: induction of immunogenic cell death
O=C(Nc1nc2ccc([N+](=O)[O-])cc2s1)c1cc2ccccc2cc1OCCCCN1CCOCC1 [Example 23, 3-[4-(morpholin-4-yl)butoxy]-N-(6-nitro-1,3-benzothiazol-2-yl)naphthalene-2-carboxamide] | – | – | – | – | fold induction at 5 µM ([1]; 5 μM compound (**)): 5 to 9.9; fold induction at 5 µM ([2]; 5 μM compound (**)): < 2.4; CXCL10 secretion by CT26 cells ([3]; 5 μM compound (**)): ++++** (“++++” indicates 800 to 1599 pg/mL); CXCL10 secretion by CT26 RIG-I −/− cells ([4]; 5 μM compound (**)): −** (“−” indicates less than 100 pg/mL)
O=C(Nc1nc2ccc(S(=O)(=O)N3CCC3)cc2s1)c1cc2ccsc2cc1OCCN1CCOCC1 [Example 62, N-[6-(azetidine-1-sulfonyl)-1,3-benzothiazol-2-yl]-6-[2-(morpholin-4-yl)ethoxy]-1-benzothiophene-5-carboxamide] | 20 to 39 | < 2.4 | ++++ (“++++” indicates 800 to 1599 pg/mL) | − (“−” indicates less than 100 pg/mL) | –
COC(=O)c1ccc2nc(NC(=O)c3ccc4ccccc4c3)sc2c1 [Example 2, methyl 2-(naphthalene-2-amido)-1,3-benzothiazole-6-carboxylate] | ≥ 40 | < 2.4 | ++++ (“++++” indicates 800 to 1599 pg/mL) | − (“−” indicates less than 100 pg/mL) | –
O=C(Nc1cc2ccc(S(=O)(=O)N3CCCC3)cc2s1)c1ccc(-c2ccccc2)cc1 [Example 81, N-[6-(pyrrolidine-1-sulfonyl)-1-benzothiophen-2-yl]-[1,1′-biphenyl]-4-carboxamide] | 20 to 39 | < 2.4 | ++++ (“++++” indicates 800 to 1599 pg/mL) | − (“−” indicates less than 100 pg/mL) | –
O=C(Nc1nc2cccc(C(F)(F)F)c2s1)c1ccc2ccccc2c1 [Example 11, N-[7-(trifluoromethyl)-1,3-benzothiazol-2-yl]naphthalene-2-carboxamide] | 10 to 19 | < 2.4 | ++ (“++” indicates 200-399 pg/mL) | − (“−” indicates less than 100 pg/mL) | –
O=C(Nc1nc2ccc(S(=O)(=O)N3CCC3)cc2s1)c1cc2c(cc1OCCCCN1CCOCC1)OCO2 [Example 64, N-[6-(azetidine-1-sulfonyl)-1,3-benzothiazol-2-yl]-6-[4-(morpholin-4-yl)butoxy]-2H-1,3-benzodioxole-5-carboxamide] | 10 to 19 | < 2.4 | +++ (“+++” indicates 400-799 pg/mL) | − (“−” indicates less than 100 pg/mL) | –
O=C(Nc1nc2ccc(Cc3ccccc3)cc2s1)c1cc2ccccc2cc1OCCN1CCOCC1 [Example 18, N-(6-benzyl-1,3-benzothiazol-2-yl)-3-[2-(morpholin-4-yl)ethoxy]naphthalene-2-carboxamide] | 2.4 to 4.9 | < 2.4 | + (“+” indicates 100-199 pg/mL) | − (“−” indicates less than 100 pg/mL) | –
O=C(Nc1nc2ccc(S(=O)(=O)N3CCC3)cc2s1)c1ccc2ccccc2c1 [Example 46, N-[6-(azetidine-1-sulfonyl)-1,3-benzothiazol-2-yl]naphthalene-2-carboxamide] | – | – | ++ (“++” indicates 200-399 pg/mL) | − (“−” indicates less than 100 pg/mL) | fold induction at 20 µM ([1]; 20 μM compound (*)): 10 to 19; fold induction at 20 µM ([2]; 20 μM compound (*)): < 2.4
O=C(Nc1nc2ccc(S(=O)(=O)N3CCCC3)cc2s1)c1ccc(-c2ccccc2)cc1OCCN1CCOCC1 [Example 47, 3-[2-(morpholin-4-yl)ethoxy]-N-[6-(pyrrolidine-1-sulfonyl)-1,3-benzothiazol-2-yl]-[1,1′-biphenyl]-4-carboxamide] | ≥ 40 | < 2.4 | +++ (“+++” indicates 400-799 pg/mL) | − (“−” indicates less than 100 pg/mL) | –
O=C(Nc1nc2ccc(OCC(F)(F)F)cc2s1)c1cc2ccccc2cc1OCCN1CCOCC1 [Example 54, 3-[2-(morpholin-4-yl)ethoxy]-N-[6-(2,2,2-trifluoroethoxy)-1,3-benzothiazol-2-yl]naphthalene-2-carboxamide] | 2.4 to 4.9 | < 2.4 | − (“−” indicates less than 100 pg/mL) | − (“−” indicates less than 100 pg/mL) | –
